Measurements published in US20250353819A1, “ARYL HYDANTOIN COMPOUNDS AND METHODS OF USE” (priority 2022, published 2025).
Where two headings read alike, the source gives them in different places.

Tests used:
[1] = In vitro metabolic stability, dog microsomes; type: in vitro ADME; details: liver microsomes
Experimental: In Vitro Metabolic Stability. As described by Charman et al. (2020), metabolic stability assays were performed by incubating test compounds in liver microsomes at 37° C. and 0.4 mg/mL protein concentration. The metabolic reaction was initiated by the addition of an NADPH-regenerating system and quenched at various time points over a 60 min incubation period by the addition of acetonitrile containing diazepam as internal standard. Control samples (containing no NADPH) were included (and quenched at 2, 30 and 60 min) to monitor for potential degradation in the absence of cofactor.

[2] = Chemical stability (acid, base, H2O2); type: physicochemical
Experimental: Samples were neutralised and diluted to a nominal concentration of 100 μg/mL in 50% aq MeOH. […] A single degradation peak appeared in all the basic samples corresponding to the urea carboxylic acid hydrolysis product.

in vivo = test: in vivo; parameters: species or system dog; details: for clearance: read-out: Plasma CL; for AUC(0-t): read-out: mean AUClast; for C0: read-out: mean plasma concentration extrapolated to time zero (C0); for MTD: Beagle dogs, read-out: maximum tolerated dose (MTD); for NOAEL: male and female Beagle dogs, read-out: no observed adverse effect level (NOAEL)
Experimental: The same 2M/2F dogs were used following 2-week washout periods for each dose level in escalation order. This was a survival study and animals were not sacrificed. The following parameters were evaluated: mortality/morbidity, clinical observations, body weights, plasma drug levels, pharmacokinetics and clinical pathology (hematology, coagulation and serum chemistry).

[3] = beagle, dog, in vivo, female dogs, iv 1 mg/kg
[4] = beagle, dog, in vivo, male dogs, iv 1 mg/kg
[5] = both sexes, dog, in vivo, single po administration

With `[2H]C([2H])([2H])C1(C([2H])([2H])[2H])NC(=O)N(c2ccc(F)c(C(C)(F)F)c2)C1=O` [Compound IE, 3-(3-(1,1-difluoroethyl)-4-fluorophenyl)-5,5-bis(methyl-d3)imidazolidine-2,4-dione] the microsomal CLint [1] was under 7 µL/min/mg, the “loss of parent compound, acidic conditions” value ([2]; 0.01 M and 0.1 M HCl, up to 48 h) was “minimal loss” and the “loss of parent compound, basic conditions” value ([2]; 0.01 M and 0.1 M NaOH, after 2 min) was “significant loss”. The “loss of parent compound, 15% H2O2” value ([2]; 15% H2O2 incubation) was “no significant loss”, the AUC (in vivo; beagle, dog, in vivo, female dogs (n = 2), IV 1 mg/kg, read-out: Plasma AUCIV 0-last) was 405 µg·h/mL and the clearance (in vivo; beagle, dog, in vivo, female dogs (n = 2), IV 1 mg/kg) was 1.92 mL/h/kg. For the same compound, the AUC (in vivo; beagle, dog, in vivo, female dogs (n = 2), PO 15 mg/kg, read-out: Plasma AUCoral 0-last) was 7030 µg·h/mL, the Cmax (in vivo; beagle, dog, in vivo, female dogs (n = 2), PO 15 mg/kg, read-out: Plasma Cmax) was 42700 ng/mL and the AUC(0-t) (in vivo; [3]) was 377 µg·h/mL. The Cmax (in vivo; beagle, dog, in vivo, female dogs, iv 1 mg/kg, read-out: mean peak plasma concentration (Cmax)) was 12500 ng/mL, the C0 (in vivo; [3]) was 18800 ng/mL and the AUC (in vivo; beagle, dog, in vivo, male dogs (n = 2), IV 1 mg/kg, read-out: Plasma AUCIV 0-last) was 526 µg·h/mL. It also gave a clearance (in vivo; beagle, dog, in vivo, male dogs (n = 2), IV 1 mg/kg) of 1.44 mL/h/kg, an AUC (in vivo; beagle, dog, in vivo, male dogs (n = 2), PO 15 mg/kg, read-out: Plasma AUCoral 0-last) of 8800 µg·h/mL and a Cmax (in vivo; beagle, dog, in vivo, male dogs (n = 2), PO 15 mg/kg, read-out: Plasma Cmax) of 51900 ng/mL. For the same compound, the AUC(0-t) (in vivo; [4]) was 485 µg·h/mL, the Cmax (in vivo; beagle, dog, in vivo, male dogs, iv 1 mg/kg, read-out: mean peak plasma concentration (Cmax)) was 6880 ng/mL and the C0 (in vivo; [4]) was 9460 ng/mL. It also gave a Tmax (in vivo; both sexes, beagle, dog, in vivo, dogs, po dose groups 15, 75, 150 mg/kg, read-out: time of peak plasma concentrations (Tmax)) of 0.25 to 24 h, an MTD (in vivo; both sexes, dog, in vivo, 1 mg/kg, single iv administration) of over 1 mg/kg and an MTD (in vivo; [5]) of over 150 mg/kg. For the same compound, the NOAEL (in vivo; both sexes, dog, in vivo, single iv administration) was at least 1 mg/kg, the NOAEL (in vivo; [5]) was at least 150 mg/kg and the “Bioavailability, determined using AUClast” value (in vivo; both, beagle, dog, in vivo, po) was “greater than 100%”. The “increase in AUClast, 150 mg/kg compared to mid-dose” value (in vivo; both, beagle, dog, in vivo, po, 150 mg/kg) was 2-3 fold, the PlasmaVSS (in vivo; female, beagle, dog, in vivo, iv, 1 mg/kg) was 0.45 L/kg and the half-life (in vivo; female, beagle, dog, in vivo, iv, 1 mg/kg, female dogs (n = 2), IV 1 mg/kg, read-out: Apparent t1/2 (converted)) was 5.12 days. The half-life (in vivo; female, beagle, dog, in vivo, iv, 1 mg/kg, female dogs, iv 1 mg/kg, read-out: mean elimination phase half-life (t1/2) (converted)) was 6.33 days, the “BA based on AUC0-last” value (in vivo; female, beagle, dog, in vivo, po, 15 mg/kg) was 115% and the half-life (in vivo; female, beagle, dog, in vivo, po, 150 mg/kg, female dogs, po 150 mg/kg, read-out: mean t1/2 (converted)) was 16.8 days. The “Apparent t1/2” value (in vivo; male dogs (n = 2), PO 15 mg/kg) was 237 h, the PlasmaVSS (in vivo; male, beagle, dog, in vivo, iv, 1 mg/kg) was 0.36 L/kg and the half-life (in vivo; male, beagle, dog, in vivo, iv, 1 mg/kg, male dogs (n = 2), IV 1 mg/kg, read-out: Apparent t1/2 (converted)) was 6.46 days. For the same compound, the half-life (in vivo; male, beagle, dog, in vivo, iv, 1 mg/kg, male dogs, iv 1 mg/kg, read-out: mean elimination phase half-life (t1/2) (converted)) was 6.96 days, the “BA based on AUC0-last” value (in vivo; male, beagle, dog, in vivo, po, 15 mg/kg) was 111% and the half-life (in vivo; male, beagle, dog, in vivo, po, 15 mg/kg, male dogs (n = 2), PO 15 mg/kg, read-out: Apparent t1/2 (converted)) was 9.88 days. It also gave a half-life (in vivo; male, beagle, dog, in vivo, po, 75 mg/kg, male dogs, po 75 mg/kg, read-out: mean t1/2 (converted)) of 14.2 days.
